# Measurements from US20050261236A1, “Agonists of A2A adenosine receptors for treatment of diabetic nephropathy” (priority 2004, published 2005).
# Key:
# [1] = tested on: STZ (45 mg/kg) Diabetic Model; assay: Blood glucose, body weight, systolic blood pressure and urine volume in STZ diabetic model; format: in vivo, rats; conditions: for 24 h Urine Volume / Body Weight / Systolic Blood Pressure: Diabetes + ATL146e (10 ng/kg/min); for 24 h Urine Volume / Body Weight / Systolic Blood Pressure / Blood Glucose: STZ rats; for Blood Glucose: Diabetes + ATL146e (10 ng/kg/min, osmotic minipump)
# Protocol: Effects of ATL146e on Blood Glucose, Body Weight, Systolic Blood Pressure and Urine Volume in STZ (45 mg/kg) Diabetic Model (n=5 Each Group) Rats were administered ATL146e (10 ng/kg/min) or vehicle by osmotic minipumps prior to the induction of diabetes by STZ […] and followed for up to 6 week. Table 1, below illustrates the effect of STZ on blood glucose, body weight, systolic blood pressure and 24 hours of urine volume as well as the effect of ATL146e. Table 1 summarizes the data for blood glucose (BG), body weight (BW), systolic blood pressure (SBP) and 24 hour urinary volume (UV). Basal BG level was 74±4 mg/dl and increased to 325±4 mg/dl 48 hours after STZ-induction of diabetes and continued to be elevated at 3 and 6 weeks of the study period. Normal rats gained weight as expected. […] There were no significant changes in SBP, 3 weeks after STZ-induction of diabetes between all groups.
# fibronectin mRNA = assay: Fibronectin mRNA (polymerase chain reaction) after induction of diabetes; format: in vivo; conditions: RNA from diabetic rats, PCR, FIG. 5, in words
# Protocol: RNA from diabetic rats were extracted and subjected to polymerase chain reaction to examine profibrogenic factors. […] Trichrome stain of kidneys from diabetic rats treated with vehicle for 6 weeks (Panels a, c) or ATL146e-10 ng/kg/min (Panels b, d). Magnification ×400. Each panel represents a photograph from a different test animal. Results are illustrated in FIG. 5.
# [2] = tested on: Nitric Oxide End Products (Nitrite and Nitrate) (NOX); assay: Urinary nitric oxide end products (nitrite and nitrate) (NOX) in diabetes; format: in vivo; conditions: diabetic rats, 6 week after STZ induction, FIG. 4, in words
# Protocol: Rats were administered ATL146e (10 ng/kg/min) or vehicle by osmotic minipumps prior to the induction of diabetes by STZ (50 mg/kg, iv) and followed for up to 6 week. Table 1, below illustrates the effect of STZ on blood glucose, body weight, systolic blood pressure and 24 hours of urine volume as well as the effect of ATL146e. As shown to the right, NOX (as an indicator of endothelial function in the kidney) was decreased in diabetes group at 6 week after STZ induction of diabetes. The decreased in NOX was improved by ATL146e. […] Results are illustrated in FIG. 4.
# [3] = tested on: STZ-induced diabetic animal model; assay: Urinary albumin excretion in diabetes; format: in vivo; conditions: STZ diabetic rats, 24 hour urine, FIG. 1, in words
# Protocol: Rats were administered ATL146e (10 ng/kg/min) or vehicle by osmotic minipumps prior to the induction of diabetes by STZ (50 mg/kg, iv) and followed for up to 6 week. Table 1, below illustrates the effect of STZ on blood glucose, body weight, systolic blood pressure and 24 hours of urine volume as well as the effect of ATL146e. Urine collections were obtained for 24 hours for measurement of urinary albumin excretion (UAE). UAE rate was 135±35 μg/24 hours at baseline and increased to 1265±500 μg/24 hours and 2921±335 μg/24 hours (P<0.0001) at week 2 and 6, respectively in the diabetic group. […] Results are illustrated in FIG. 1.
# diabetic rats = assay: Plasma creatinine in diabetes; format: in vivo; conditions: diabetic rats versus vehicle, FIG. 2, in words
# Protocol: (§1) Rats were administered ATL146e (10 ng/kg/min) or vehicle by osmotic minipumps prior to the induction of diabetes by STZ (50 mg/kg, iv) and followed for up to 6 week. Table 1, below illustrates the effect of STZ on blood glucose, body weight, systolic blood pressure and 24 hours of urine volume as well as the effect of ATL146e. […] Results are illustrated in FIG. 2.
# TNF-alpha = assay: Urinary and plasma TNF-alpha in diabetes; format: in vivo, rats
# Protocol: as §1, with “ATL146e. Urinary TNF-alpha was not different between groups before STZ treatment.” for “ATL146e.”, “3.” for “2.”
smiles,measurement,setting,value
"CCNC(=O)C1OC(n2cnc3c(N)nc(C#CCC4CCC(C(=O)OC)CC4)nc32)C(O)C1O (stereo not drawn) [ATL146e, 4-{3-[6-Amino-9-(5-ethylcarbamoyl-3,4-dihydroxytetrahydro-furan-2-yl)-9H-purin-2-yl]-prop-2-ynyl}cyclo-hexanecarboxylic acid methyl ester]",24 h Urine Volume,[1]; Baseline,15 ± 2 mL
same,Body Weight,[1]; Baseline,250 ± 13 g
same,24 h Urine Volume,[1]; Week 2,53 ± 13 mL
same,Body Weight,[1]; Week 3,323 ± 13 g
same,Systolic Blood Pressure,[1]; Week 3,123 ± 4 mmHg
same,24 h Urine Volume,[1]; Week 4,57 ± 15 mL
same,24 h Urine Volume,[1]; Week 6,59 ± 23 mL
same,Body Weight,[1]; Week 6,358 ± 24 g
same,Systolic Blood Pressure,[1]; Week 6,114 ± 2 mmHg
same,Blood Glucose,[1]; Baseline,75 ± 5 mg/dL
same,Blood Glucose,[1]; Week 1,311 ± 37 mg/dL
same,Blood Glucose,[1]; Week 6,359 ± 23 mg/dL
same,Effect on the increase in SBP observed in diabetes with no treatment,"[1]; STZ diabetic rats, after 6 weeks, in words",restored the increase in SBP
same,24 hour urinary volume (UV),"[1]; diabetes+ATL146e group after STZ-induction, throughout study period, in words",increased significantly
same,Increase in BW,"[1]; diabetes+ATL146e rats versus normal rats of matched age, in words",modest and significant from normal rats
same,Effect on the increase in fibronectin mRNA induced by diabetes,fibronectin mRNA,reduced to levels near control
same,Effect on decreased urinary NOX,[2],restored to normal levels
same,Effect on urinary albumin excretion (UAE),[3],minimizes the increase of UAE
same,Effect on the increase in plasma creatinine,diabetic rats,significantly restored to normal
same,Plasma TNF-alpha,"TNF-alpha; all groups, any point of the study periods (data not shown)",not detectable
same,Effect on the increase in TNF-alpha (printed: Plasma TNF-alpha),"TNF-alpha; diabetic rats, 6 week after diabetes, FIG. 3, in words",significantly (P<0.05) reduced the increase in Plasma TNF-alpha
